Laboratory results: ChEMBL document CHEMBL3576836, “Bioactive Metabolites from the Fruits of Psoralea corylifolia” (J Nat Prod, 2015)
One block for each molecule: values may come before it. Calls of active or inactive are those of the source. No cut-off for these calls is given here.

What was measured:
A549 = assay: Cytotoxicity against human A549 cells after 48 hrs by MTT assay; assay type: functional, cell-based; details: A549, 48 h
K562 = assay: Cytotoxicity against human K562 cells after 48 hrs by MTT assay; assay type: functional, cell-based; details: K562, 48 h
[1] = target: T1, NAD-dependent protein deacetylase sirtuin-1 (Homo sapiens) (UniProt Q96EB6); assay: Increase in SIRT1 (unknown origin) deacetylation activity at 10 uM
T1 sequence (whole entry): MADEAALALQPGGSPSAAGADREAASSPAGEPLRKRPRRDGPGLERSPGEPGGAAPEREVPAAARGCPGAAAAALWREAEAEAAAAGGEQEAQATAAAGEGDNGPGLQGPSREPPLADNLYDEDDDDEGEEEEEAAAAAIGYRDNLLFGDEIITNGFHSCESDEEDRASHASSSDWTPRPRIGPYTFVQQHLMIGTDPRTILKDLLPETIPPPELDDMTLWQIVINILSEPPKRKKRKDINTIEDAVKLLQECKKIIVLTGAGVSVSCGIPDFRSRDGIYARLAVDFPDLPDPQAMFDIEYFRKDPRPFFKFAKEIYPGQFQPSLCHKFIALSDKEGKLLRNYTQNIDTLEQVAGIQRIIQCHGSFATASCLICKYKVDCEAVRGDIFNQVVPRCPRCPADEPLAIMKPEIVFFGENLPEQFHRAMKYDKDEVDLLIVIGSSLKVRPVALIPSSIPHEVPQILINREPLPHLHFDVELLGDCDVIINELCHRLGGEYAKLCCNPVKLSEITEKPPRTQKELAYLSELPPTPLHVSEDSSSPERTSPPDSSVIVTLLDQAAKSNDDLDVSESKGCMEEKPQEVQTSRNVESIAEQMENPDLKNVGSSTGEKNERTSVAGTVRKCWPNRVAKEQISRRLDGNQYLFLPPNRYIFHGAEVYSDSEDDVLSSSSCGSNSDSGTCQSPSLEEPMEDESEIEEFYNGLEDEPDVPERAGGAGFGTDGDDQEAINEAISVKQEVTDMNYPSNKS

[2] = Inhibition of Streptococcus mutans OMZ65 recombinant sortase A delta-40 mutant using Dabcyl-QALPETGEE-Edans as substrate after 1 hr by fluorescence spectrophotometry
[3] = target: T1, NAD-dependent protein deacetylase sirtuin-1 (Homo sapiens); assay: Increase in SIRT1 (unknown origin) deacetylation activity
[4] = target: T1, NAD-dependent protein deacetylase sirtuin-1 (Homo sapiens); assay: Stimulation of SIRT1 (unknown origin) expressed in HEK293 cells coexpressing p53-Luc assessed as decrease in p53 transcriptional activity; assay type: cell-based
[5] = target: T1, NAD-dependent protein deacetylase sirtuin-1 (Homo sapiens); assay: Stimulation of SIRT1 (unknown origin) expressed in HEK293 cells assessed as increase in intracellular NAD+/NADH ratio; assay type: cell-based

Molecule: CC(C)(O)c1cc2c3c(ccc2o1)C(=O)C[C@@H](c1ccc(O)cc1)O3
IC50 [2]: 135 µM
IC50 (A549): > 10 µM
IC50 (K562): > 10 µM
Activity [1]: Active
Activity [3]: Dose-dependent effect
Activity [4]: Dose-dependent effect
Activity [5]: Dose-dependent effect

Molecule: Para-Hydroxymercuribenzoic acid
IC50 [2]: 118 µM

Molecule: O=c1ccc2ccc3occc3c2o1 [ANGELICIN]
IC50 (A549): > 10 µM
IC50 (K562): > 10 µM
Activity [1]: inactive

Molecule: O=c1ccc2cc3ccoc3cc2o1 [PSORALEN]
IC50 [2]: 330 µM
IC50 (A549): > 10 µM
IC50 (K562): > 10 µM
Activity [1]: inactive

Molecule: CC(C)(O)[C@H]1Cc2c(ccc3c2O/C(=C\c2ccc(O)c(O)c2)C3=O)O1
IC50 [2]: 209 µM
IC50 (A549): > 10 µM
IC50 (K562): > 10 µM
Activity [1]: Active
Activity [3]: Dose-dependent effect
Activity [4]: Dose-dependent effect
Activity [5]: Dose-dependent effect

Molecule: O=Cc1ccc(O)c(O)c1 [PROTOCATECHUALDEHYDE]
IC50 [2]: 514 µM
IC50 (A549): > 10 µM
IC50 (K562): > 10 µM
Activity [1]: inactive

Molecule: CC1(C)Oc2ccc(-c3coc4cc(O)ccc4c3=O)cc2C[C@@H]1O
IC50 [2]: 236 µM
IC50 (A549): > 10 µM
IC50 (K562): > 10 µM
Activity [1]: inactive

Molecule: CC(C)=CCc1cc(-c2coc3cc(O)cc(O)c3c2=O)ccc1O [CORYLIN]
IC50 [2]: 272 µM
IC50 (A549): > 10 µM
IC50 (K562): > 10 µM
Activity [1]: inactive

Molecule: CC(C)=CCc1cc(-c2coc3cc(O)ccc3c2=O)ccc1O [NEOBAVAISOFLAVONE]
IC50 [2]: 284 µM
IC50 (A549): > 10 µM
IC50 (K562): > 10 µM
Activity [1]: inactive

Molecule: O=Cc1ccc(O)cc1 [4-HYDROXYBENZALDEHYDE]
IC50 (A549): > 10 µM
IC50 (K562): > 10 µM
Activity [1]: inactive

Molecule: CC(C)(O)[C@@H]1Cc2cc3c(cc2O1)oc1c2ccc(O)cc2oc(=O)c31
IC50 [2]: 138 µM
IC50 (A549): > 10 µM
IC50 (K562): > 10 µM
Activity [1]: inactive

Molecule: CC(C)(O)[C@H]1Oc2cc3oc4c5ccc(O)cc5oc(=O)c4c3cc2[C@@H]1O
IC50 [2]: 119 µM
IC50 (A549): > 10 µM
IC50 (K562): > 10 µM
Activity [1]: inactive

More lines, main results first:

Activity [1]: inactive
Molecule: C=C[C@@](C)(/C=C/c1ccc(O)cc1)CCC(=O)C(=C)C
IC50 (A549): > 10 µM
IC50 (K562): > 10 µM

Activity [1]: inactive
Molecule: C=C(C)[C@H]1Cc2c(ccc3c2O/C(=C\c2ccc(O)c(O)c2)C3=O)O1
IC50 (A549): > 10 µM
IC50 (K562): > 10 µM

Activity [1]: inactive
Molecule: Oc1ccc(O)cc1 [HYDROQUINONE]
IC50 (A549): > 10 µM
IC50 (K562): > 10 µM

Activity [1]: inactive
Molecule: CC1(C)Oc2ccc(-c3coc4cc(O)ccc4c3=O)cc2[C@@H](O)[C@@H]1O
IC50 (A549): > 10 µM
IC50 (K562): > 10 µM

Activity [1]: inactive
Molecule: C=C(C)[C@@H]1Cc2cc3c(cc2O1)oc1c2ccc(O)cc2oc(=O)c31
IC50 (A549): > 10 µM
IC50 (K562): > 10 µM

Activity [1]: inactive
Molecule: C=C[C@@](C)(/C=C/c1ccc(O)cc1)CCC1OC1(C)C (stereo not given in full)
IC50 (A549): > 10 µM
IC50 (K562): > 10 µM

Activity [1]: inactive
Molecule: C=C[C@@](C)(/C=C/c1ccc(O)cc1)C/C=C/C(C)(C)O
IC50 (A549): > 10 µM
IC50 (K562): > 10 µM

Activity [1]: inactive
Molecule: CC(C)=CCc1cc2c(cc1O)O[C@H](c1ccc(O)cc1)CC2=O [BAVACHIN]
IC50 (A549): > 10 µM
IC50 (K562): > 10 µM

Activity [1]: inactive
Molecule: COc1cc2oc(-c3ccc(O)cc3)cc(=O)c2cc1CC=C(C)C [BAVACHININ]
IC50 (A549): > 10 µM
IC50 (K562): > 10 µM

Activity [1]: inactive
Molecule: C=C[C@@](C)(/C=C/c1ccc(O)cc1)CC[C@@H](O)C(C)(C)O
IC50 (A549): > 10 µM
IC50 (K562): > 10 µM

Activity [1]: inactive
Molecule: CC(C)(O)[C@@H]1Cc2cc3c(cc2O1)O[C@H](c1ccc(O)cc1)CC3=O
IC50 (A549): > 10 µM
IC50 (K562): > 10 µM

Activity [1]: Active
Activity [3]: Dose-dependent effect
Activity [4]: Dose-dependent effect
Activity [5]: Dose-dependent effect
Molecule: CC(C)(O)[C@@H]1Oc2ccc(-c3coc4cc(O)ccc4c3=O)cc2[C@H]1O
IC50 (A549): > 10 µM
IC50 (K562): > 10 µM

Activity [1]: inactive
Molecule: C=C(C)[C@@H]1Cc2cc3c(cc2O1)O[C@H](c1ccc(O)cc1)CC3=O
IC50 (A549): > 10 µM
IC50 (K562): > 10 µM

Activity [1]: inactive
Molecule: CC1(C)Oc2ccc(-c3coc4cc(O)ccc4c3=O)cc2[C@H](O)[C@@H]1O
IC50 (A549): > 10 µM
IC50 (K562): > 10 µM

Activity [1]: inactive
Molecule: CC(C)=CCc1cc(C(=O)/C=C/c2ccc(O)cc2)c(O)cc1O [BROUSSOCHALCONE B]
IC50 (A549): > 10 µM
IC50 (K562): > 10 µM

Activity [1]: inactive
Molecule: CC(C)=CCc1c(O)ccc(C(=O)/C=C/c2ccc(O)cc2)c1O [ISOBAVACHALCONE]
IC50 (A549): > 10 µM
IC50 (K562): > 10 µM
